Reference: ChEMBL document CHEMBL1201862, “PubChem BioAssay data set” (2004)
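Values below derive from 48-hour exposures of cells grown in 96-well plates, with endpoints linearly interpolated between the two concentrations bracketing the appropriate inhibition level. GI50 marks 50% less growth.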 Calls of active or inactive are those of the source. Cut-off read from the data, not from the text of the source: active = GI50 up to about 1.1 µM and inactive = higher.

Key:
Test in all cases: DTP human tumour cell line panel, 48 h
[1] = test system: ACHN
[2] = test system: BT-549
[3] = test system: CAKI-1
[4] = test system: HCC 2998
[5] = test system: HL-60
[6] = test system: IGROV-1
[7] = test system: M14
[8] = test system: MDA-N
[9] = test system: MOLT-4
[10] = test system: NCI/ADR-RES
[11] = test system: OVCAR-3
[12] = test system: OVCAR-8
[13] = test system: PC-3
[14] = test system: RXF 393
[15] = test system: SF-539
[16] = test system: SK-MEL-2
[17] = test system: SN12C
[18] = test system: SNB-75
[19] = test system: SW-620
[20] = test system: UACC-257

Measured: GI50

COC(=O)/C=C/C1(O)C=CC(=O)C=C1
inactive: [1] 2.1 µM | [2] 5.27 µM | [3] 1.41 µM | [4] 7.52 µM | [5] 2.38 µM | [6] 2.69 µM | [7] 1.79 µM | [8] 1.89 µM | [9] 2.02 µM | [10] 3.5 µM | [11] 2.17 µM | [12] 3.4 µM | [13] 2.34 µM | [14] 3.12 µM | [15] 2.15 µM | [16] 6.32 µM | [17] 1.77 µM | [18] 9.86 µM | [19] 5.7 µM | [20] 3.3 µM
